Reference: US10000488B2, “Heterocyclic compound” (TAKEDA PHARMACEUTICAL COMPANY LIMITED, priority 2014, dated 2018)

Key:
RORγt [1] = target: T1, RORγt (Homo sapiens, UniProt P51449); test: RORγt binding test using fluorescent-labeled synthetic ligand (TR-FRET); conditions: test compound 1 μM; read-out: binding inhibitory rate (%) of fluorescent-labeled synthetic ligand to RORγt at test compound 1 μM
T1 sequence (P51449 1-497 isoform P51449-2): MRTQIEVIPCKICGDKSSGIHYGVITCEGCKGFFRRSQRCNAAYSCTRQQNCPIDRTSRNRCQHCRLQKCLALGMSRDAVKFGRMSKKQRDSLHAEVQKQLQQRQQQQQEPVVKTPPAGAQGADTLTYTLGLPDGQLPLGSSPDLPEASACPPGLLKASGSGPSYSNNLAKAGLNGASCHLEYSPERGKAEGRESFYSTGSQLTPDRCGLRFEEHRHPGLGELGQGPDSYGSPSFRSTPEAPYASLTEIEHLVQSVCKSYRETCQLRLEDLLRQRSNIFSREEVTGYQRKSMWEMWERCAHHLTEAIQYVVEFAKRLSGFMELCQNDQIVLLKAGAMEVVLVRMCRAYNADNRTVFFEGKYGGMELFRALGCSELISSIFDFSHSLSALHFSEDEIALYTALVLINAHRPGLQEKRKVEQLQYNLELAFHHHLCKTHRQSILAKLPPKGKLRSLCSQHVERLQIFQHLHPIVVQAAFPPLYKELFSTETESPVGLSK
In short: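 Compound displacement of a fluorescent-labeled synthetic ligand from His-tagged RORγt was read by TR-FRET with a terbium anti-His antibody. Buffer was 20 mM Tris-HCl pH 7.5, 100 mM NaCl, 1 mM DTT and 0.1% BSA, with stocks of 240 nM protein, 12 μM ligand and 8 nM antibody (pre-mix, not final). Incubations were 20 min plus 20 min at room temperature, with excitation at 320 nm, emission at 520 nm and a 100 μs delay.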

RORγt [2] = target: T1, RORγt; test: Cofactor recruitment test (Alpha Screen, biotinylated SRC-1 peptide); assay type: biochemical; conditions: read-out: signal value inhibitory rate (%) at test compound 1 μM
Experimental: Cofactor Recruitment Test
Cofactor recruitment test was performed by Alpha Screen (Histidine Detection Kit, PerkinElmer) method. First, a test compound was diluted with an assay buffer (50 mM Tris-HCl (pH 7.5), 50 mM KCl, 1 mM DTT, 0.1% BSA) and added to a 384 well plate by 5 μL. […] The mixture was stood in a dark place for 1 hr, and the signal value was measured by Envision (PerkinElmer).

RORγt [3] = target: T1, RORγt; test: Jurkat reporter test (human IL-17 ROR response element luciferase reporter, RORγt vector); assay type: cell-based; conditions: test compound 3 μM; Jurkat cells; read-out: luminescence level inhibitory rate (%) at test compound 3 μM
In short: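 Jurkat cells were electroporated (1350 V, 10 ms, 3 pulses) with the reporter constructs and plated in RPMI with 10% lipid-reduced FCS, 10 mM HEPES pH 7.5 and 5 μM lovastatin. After overnight culture with compound, luciferase activity was measured by luminescence following a 10 min room-temperature incubation with Bright-Glo.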

Row | Compound | inhibition at 1 µM (RORγt [1]) | inhibition at 1 µM (RORγt [2]) | inhibition at 3 µM (RORγt [3])
1 | CC(C)n1c(=O)n(CC2CCCO2)c(=O)c2cc(NC(=O)N3CCO[C@@H](C(=O)Nc4ccc(C#N)c(Cl)c4)C3)c(F)cc21 (stereo partly drawn) [Example 333, (2R)—N^2-(3-chloro-4-cyanophenyl)-N^4-(7-fluoro-1-isopropyl-2,4-dioxo-3-(tetrahydrofuran-2-ylmethyl)-1,2,3,4-tetrahydroquinazolin-6-yl)morpholine-2,4-dicarboxamide] | 101% | 107% | 106%
2 | CC(C)n1c(=O)n(CC2CC2)c(=O)c2cc(NC(=O)N3CCC[C@@H](NC(=O)c4ccc(C#N)cc4)C3)ccc21 [Example 218, (3R)-3-((4-cyanobenzoyl)amino)-N-(3-(cyclopropylmethyl)-1-isopropyl-2,4-dioxo-1,2,3,4-tetrahydroquinazolin-6-yl)piperidine-1-carboxamide] | 102% | 111% | 103%
3 | CC(C)n1c(=O)n(CC2CC2(F)F)c(=O)c2cc(NC(=O)N3CCO[C@@H](C(=O)Nc4ccc(C#N)c(Cl)c4)C3)c(F)cc21 (stereo partly drawn) [Example 331, (2R)—N^2-(3-chloro-4-cyanophenyl)-N^4-(3-((2,2-difluorocyclopropyl)methyl)-7-fluoro-1-isopropyl-2,4-dioxo-1,2,3,4-tetrahydroquinazolin-6-yl)morpholine-2,4-dicarboxamide] | 102% | 109% | 103%
4 | CC(C)n1c(=O)n(CC2CC2)c(=O)c2cc(NC(=O)N3CCC[C@@H](NC(=O)c4ccc(C#N)cc4F)C3)ccc21 [Example 219, (3R)-3-((4-cyano-2-fluorobenzoyl)amino)-N-(3-(cyclopropylmethyl)-1-isopropyl-2,4-dioxo-1,2,3,4-tetrahydroquinazolin-6-yl)piperidine-1-carboxamide] | 102% | 110% | 101%
5 | CC(C)n1c(=O)n(CC2CC2)c(=O)c2cc(NC(=O)N3CCO[C@@H](C(=O)Nc4cnc(C#N)c(Cl)c4)C3)ccc21 [Example 122, (2R)-N^2-(5-chloro-6-cyanopyridin-3-yl)-N^4-(3-(cyclopropylmethyl)-1-isopropyl-2,4-dioxo-1,2,3,4-tetrahydroquinazolin-6-yl)morpholine-2,4-dicarboxamide] | 101% | 112% | 103%
6 | CC(C)n1c(=O)n(CC2CC2)c(=O)c2cc(NC(=O)N3CCO[C@@H](C(=O)Nc4cnc(C#N)c(F)c4)C3)ccc21 [Example 103, (2R)-N^2-(6-cyano-5-fluoropyridin-3-yl)-N^4-(3-(cyclopropylmethyl)-1-isopropyl-2,4-dioxo-1,2,3,4-tetrahydroquinazolin-6-yl)morpholine-2,4-dicarboxamide] | 101% | 102% | 103%
7 | CC(C)n1c(=O)n(C[C@@H]2CCCO2)c(=O)c2cc(NC(=O)N3CCO[C@@H](C(=O)Nc4cc(Cl)c(C#N)cc4F)C3)c(F)cc21 [Example 358, (2R)—N^2-(5-chloro-4-cyano-2-fluorophenyl)-N^4-(7-fluoro-1-isopropyl-2,4-dioxo-3-((2S)-tetrahydrofuran-2-ylmethyl)-1,2,3,4-tetrahydroquinazolin-6-yl)morpholine-2,4-dicarboxamide] | 101% | 107% | 106%
8 | CC(C)n1c(=O)n(CC2CC2)c(=O)c2cc(NC(=O)N3CCCC(NC(=O)Nc4ccccc4)C3)ccc21 (stereo not drawn) [Example 146, N-(3-(cyclopropylmethyl)-1-isopropyl-2,4-dioxo-1,2,3,4-tetrahydroquinazolin-6-yl)-3-((phenylcarbamoyl)amino) piperidine-1-carboxamide] | 102% | 103% | 101%
9 | CC(C)n1c(=O)n(CC2CCOC2)c(=O)c2cc(NC(=O)N3CCO[C@@H](C(=O)Nc4ccc(C#N)c(Cl)c4)C3)c(F)cc21 (stereo partly drawn) [Example 335, (2R)—N^2-(3-chloro-4-cyanophenyl)-N^4-(7-fluoro-1-isopropyl-2,4-dioxo-3-(tetrahydrofuran-3-ylmethyl)-1,2,3,4-tetrahydroquinazolin-6-yl)morpholine-2,4-dicarboxamide] | 101% | 108% | 106%
10 | CC(C)n1c(=O)n(CC2CC2)c(=O)c2cc(NC(=O)N3CCCC(NC(=O)c4ccc(C#N)cc4)C3)ccc21 (stereo not drawn) [Example 180, 3-((4-cyanobenzoyl)amino)-N-(3-(cyclopropylmethyl)-1-isopropyl-2,4-dioxo-1,2,3,4-tetrahydroquinazolin-6-yl)piperidine-1-carboxamide] | 102% | 111% | 101%

Now from value to compound:

Row | inhibition at 1 µM (RORγt [1]) | inhibition at 1 µM (RORγt [2]) | inhibition at 3 µM (RORγt [3]) | Compound
11 | 102% | 111% | 102% | CC(C)n1c(=O)n(CC2CC2)c(=O)c2cc(NC(=O)N3CCC[C@@H](NC(=O)c4ccc(C#N)nc4)C3)ccc21 [Example 223, 6-cyano-N-((3R)-1-((3-(cyclopropylmethyl)-1-isopropyl-2,4-dioxo-1,2,3,4-tetrahydroquinazolin-6-yl)carbamoyl)piperidin-3-yl)nicotinamide]
12 | 102% | 108% | 103% | CC(C)n1c(=O)n(CC2CC2)c(=O)c2cc(NC(=O)N3CCC[C@@H](N4Cc5ccc(C#N)cc5C4=O)C3)c(F)cc21 [Example 323, (3R)-3-(6-cyano-1-oxo-1,3-dihydro-2H-isoindol-2-yl)-N-(3-(cyclopropylmethyl)-7-fluoro-1-isopropyl-2,4-dioxo-1,2,3,4-tetrahydroquinazolin-6-yl)piperidine-1-carboxamide]
13 | 102% | 102% | 102% | Cc1ccc(F)c(C(=O)N[C@@H]2CCCN(C(=O)Nc3ccc4c(c3)c(=O)n(CC3CC3)c(=O)n4C(C)C)C2)c1 [Example 259, (3R)-N-(3-(Cyclopropylmethyl)-1-isopropyl-2,4-dioxo-1,2,3,4-tetrahydroquinazolin-6-yl)-3-((2-fluoro-5-methylbenzoyl)amino)piperidine-1-carboxamide]
14 | 102% | 106% | 107% | CC(C)n1c(=O)n(CC2CC(F)(F)C2)c(=O)c2cc(NC(=O)N3CCC[C@@H](n4cnc5cc(C#N)ccc5c4=O)C3)c(F)cc21 [Example 363, (3R)-3-(7-cyano-4-oxoquinazoline-3(4H)-yl)-N-(3-((3,3-difluorocyclobutyl)methyl)-7-fluoro-1-isopropyl-2,4-dioxo-1,2,3,4-tetrahydroquinazolin-6-yl)piperidine-1-carboxamide]
15 | 102% | 105% | 102% | CC(C)n1c(=O)n(CC2CC2)c(=O)c2cc(NC(=O)N3CCC[C@@H](NC(=O)c4ccc5c(c4)CCO5)C3)ccc21 [Example 251, (3R)-N-(3-(cyclopropylmethyl)-1-isopropyl-2,4-dioxo-1,2,3,4-tetrahydroquinazolin-6-yl)-3-((2,3-dihydro-1-benzofuran-5-ylcarbonyl)amino)piperidine-1-carboxamide]
16 | 101% | 105% | 107% | CC(C)n1c(=O)n(CC2CC2(F)F)c(=O)c2cc(NC(=O)N3CCCC(n4cnc5cc(C#N)ccc5c4=O)C3)c(F)cc21 (mixture of isomers) [Example 360, (3R)-3-(7-cyano-4-oxoquinazoline-3(4H)-yl)-N-(3-((2,2-difluorocyclopropyl)methyl)-7-fluoro-1-isopropyl-2,4-dioxo-1,2,3,4-tetrahydroquinazolin-6-yl)piperidine-1-carboxamide (mixture of two stereoisomers)]
17 | 102% | 108% | 102% | CC(C)n1c(=O)n(CC2CC2)c(=O)c2cc(NC(=O)N3CCC[C@@H](NC(=O)c4cc(Cl)ccc4F)C3)c(F)cc21 [Example 282, (3R)-3-((5-chloro-2-fluorobenzoyl)amino)-N-(3-(cyclopropylmethyl)-7-fluoro-1-isopropyl-2,4-dioxo-1,2,3,4-tetrahydroquinazolin-6-yl)piperidine-1-carboxamide]
